{"source": "patent US20150157651A1", "about": "“TRI-SUBSTITUTED GLYCEROL COMPOUNDS FOR USE IN THE TREATMENT OF CLINICALLY ISOLATED SYNDROME AND/OR MULTIPLE SCLEROSIS” (ALPHAPTOSE GMBH, priority 2012, published 2015)", "key": {"[1]": {"system": "relapsing-remitting EAE (RR-EAE) model in SJL mice", "experiment": "Relapsing-remitting EAE disease course, clinical scoring", "format": "in vivo", "description": "FIG. 6 describes the influence of edelfosine on EAE disease course. Our aim was to study the effect of edelfosine on the immune system in the context of experimental autoimmune encephalomyelitis (EAE), an animal model of multiple sclerosis. In the course of EAE CD4+ T cell and mononuclear cell inflammation is followed by axonal damage and demyelination in the central nervous system (CNS) which results in progressive hind-limb paralysis. In order to analyze the anti-inflammatory properties of edelfosine we have used the relapsing-remitting EAE (RR-EAE) model in SJL mice. We also examined the edelfosine impact on human T-cell proliferation. For EAE induction SJL mice were immunized with the proteolipid PLP(139-151). Edelfosine was adminstered by intraperitoneal injection from day 0 at a daily basis. EAE disease course was assessed by clinical scoring in a 0-5 scale until day 40 (*P<0.05, 2-way ANOVA, n=7). To investigate the therapeutic effect of edelfosine on RR-EAE disease course, SJL mice were immunized and treatment of the mice was started at disease onset by intraperitoneal injection from day 11 at a daily basis until day 45."}, "non-stimulated PBMCs": {"system": "non-stimulated PBMCs", "experiment": "Flow cytometry of non-stimulated PBMCs for cell death", "format": "cell-based, human", "settings": "10 μg/ml or 33.3 μg/ml, 24 h"}, "human PBMCs [2]": {"system": "human PBMCs", "experiment": "Proliferation of already PHA-activated, proliferating PBMCs, edelfosine added two days later", "format": "cell-based", "experimental": "(§1) FIG. 1: Human T-cell proliferation was affected by edelfosine. […] (B) The inhibitory effect of edelfosine was also observed if the drug was added to already activated, proliferating T cells. […] (C) Preincubation of PBMCs with at least 3.3 μg/ml edelfosine interfered with the cells' capacity to proliferate upon PHA stimulation. No effect was detected in preconditioned, but unstimulated cells (experiments A-C: sample size n=3 donors, each approach was seeded in triplicates). (D) 1 μg/ml edelfosine or higher concentrations profoundly diminished proliferation in MBP(83-99)-specific TCLs (T-cell line). One representative TCL of two is shown. Cells were incubated in quadruplicates. (E) PBMCs were cultured without addition of stimulus. Proliferation was detectable after seven days. […] Bars represent mean values±SEM, *P<0.05, **P<0.01 and ***P<0.001 after post-hoc analysis.\nThe second approach aimed at characterizing the edelfosine influence on already proliferating cells. For that reason cells were activated with PHA, and edelfosine was added two days later."}, "human CD4+ T cells [3]": {"system": "human CD4+ T cells", "experiment": "Whole genome expression (microarray) analysis of CD4+ T cells", "format": "cell-based", "experimental": "FIG. 2: Modulated gene expression in CD4+ T cells upon culture with edelfosine.\nEnriched CD4+ T cells from PBMCs of two age-matched female as well as two age-matched male donors were incubated for 30 h without edelfosine, in presence of 3.3 μg/ml edelfosine and 10 μg/ml edelfosine, respectively. In parallel approaches, cells were incubated with beads coated with antibodies against CD2, CD3 and CD28 or with coated beads and 3.3 μg/ml edelfosine. Cell-culture supernatant was saved and cells were subjected to RNA isolation, cDNA synthesis and microarray analysis for gene expression. Comparative gene-expression analysis was performed according to FIG. 2.\nIn general, edelfosine modulated the gene expression of human CD4+ T cells in the case of stimulation but also if no exogenous stimulus was added, although to a limited extent. […] Therefore, further analysis of the unstimulated cells focused on the 10 μg/ml edelfosine approach. Next, the database for annotation, visualization and integrated discovery (DAVID)-bioinformatics database was used to annotate the differentially expressed genes to functional themes/groups and assign to them so-called gene-ontology (GO) terms for specific pathways of cellular function (314). The GO project is an effort to consistently describe gene products in databases. DAVID, as a tool, is designed to allow systematical mapping of large numbers of genes in lists associated with biological annotations (e.g. GO terms). Three structured controlled vocabularies (ontologies) have been developed to describe gene products in a species-independent manner: the associated biological process (BP), cellular components and molecular functions. The GOTERM_BP_FAT set which has been specifically designed by the DAVID consortium was selected to filter the broadest terms in order to prevent overshadowing of more specific terms. FIG. 3 summarizes the top-3 GO-terms which were selected due to their highest GO P-values. As shown therein, the addition of […] edelfosine was leading to an upregulation of genes associated with apoptosis and cell death in the unstimulated setting, a finding that was in accordance with the previously described analysis for annexin V and PI after edelfosine incubation."}, "[4]": {"system": "CNS-infiltrating cells of EAE SJL mice", "experiment": "CNS cellular infiltration in EAE acute phase, flow cytometry", "format": "in vivo", "settings": "15 days after EAE induction", "experimental": "FIG. 8 describes the effect of edelfosine on CNS cellular infiltration in EAE acute phase. SJL mice were immunized with […]. 15 days after EAE induction CNS cells were analyzed by flow cytometry. The administration of 10 mg/kg edelfosine reduced the absolute number of CNS-infiltrating CD45+ leukocytes (a). […] We found a significant treatment effect with a significant difference between 10 mg/kg edelfosine and PBS treatment in CD4+ cells (*P<0.05 compared to PBS control group, post-hoc comparison after 1-way ANOVA, n=4). Similar differences were found for T cells in spleens at day 9 after immunization."}, "[5]": {"system": "human peripheral blood mononuclear cells (PBMCs)", "experiment": "PBMC proliferation, edelfosine added on cell seeding, with or without PHA", "format": "cell-based", "experimental": "as §1\nFIG. 9 describes the influence of edelfosine on human T cell proliferation. […] PBMCs were used for the examination of concentration-dependent edelfosine impact on human T cell activation and proliferation (b, 72 h of co-culture). A reduction in proliferation was already detectable upon addition of 1.0 μg/ml edelfosine (**P<0.01, n=3). Enriched CD4+ T cells from PBMCs of both two age-matched female and male donors were incubated for 30 h in presence of 3.3 μg/ml edelfosine. Cells were stimulated with beads coated with antibodies against CD2, CD3 and CD28.\nIn order to characterize the influence of edelfosine on the proliferation of human T cells, peripheral blood mononuclear cells (PBMCs) were first stimulated with a mitogenic stimulus, PHA (phytohemagglutinin) Proliferation was analyzed after three days of culture. First, the impact of edelfosine on T-cell activation and proliferation was investigated by adding edelfosine immediately as the cells were seeded. Cells were incubated without or in the presence of PHA. […] Here, the half maximal inhibitory concentration (IC50) was determined by nonlinear regression."}, "human PBMCs [6]": {"system": "human PBMCs", "experiment": "PBMC proliferation over seven days without addition of stimulus", "format": "cell-based", "settings": "3.3 μg/ml edelfosine, up to seven days", "experimental": "as §1\nIn an additional approach PBMCs were incubated for up to seven days without the addition of a stimulus. Cells were cultured in medium alone, in presence of anti-HLA-DR- and anti-MHC class I-blocking antibody or with 3.3 μg/ml edelfosine."}, "[7]": {"system": "lymph node cells of SJL mice", "experiment": "Ex vivo thymidine proliferation of lymph node cells from treated immunized mice", "format": "in vivo", "experimental": "FIG. 7 describes the impact of edelfosine on proliferation of antigen-specific cells. To examine the influence of edelfosine on antigen-specific cells in the periphery lymph nodes from SJL mice were prepared for thymidine proliferation assays 9 days after immunization. Cells were restimulated ex vivo by addition of mitogenic- (a), polyclonal or disease-relevant (PLP(139-151); b) antigen."}, "human CD4+ T cells [8]": {"system": "human CD4+ T cells", "experiment": "Whole genome expression (microarray) analysis of CD4+ T cells", "format": "cell-based", "settings": "unstimulated cells, 10 μg/ml, 30 h"}, "human PBMCs [9]": {"system": "human PBMCs", "experiment": "PBMC proliferation after 24 h preincubation with edelfosine, washing, then PHA stimulation", "format": "cell-based", "experimental": "as §1\nCells were washed extensively to remove edelfosine followed by further culturing for three days. In control approaches cells were incubated without PHA. […] 3.3 μg/ml edelfosine or higher interfered with the cellular capacity to proliferate upon stimulation with PHA."}, "[10]": {"settings": "cells stimulated with anti-CD2/CD3/CD28 beads, 3.3 μg/ml, 30 h"}, "[11]": {"settings": "unstimulated cells, 10 μg/ml, 30 h"}}, "note": "Entries after “also recorded” stand apart in the source; their conditions may differ.", "data": [{"smiles": "CCCCCCCCCCCCCCCCCCOC[C@H](COP(=O)([O-])OCC[N+](C)(C)C)OC", "note": "(racemic) [edelfosine, 1-O-octadecyl-2-O-methyl-sn-glycero-3-phosphocholine]", "values": [{"measurement": "EAE disease course", "setting": "[1]; prophylactic, 10 mg/kg daily intraperitoneal from day 0", "result": "EAE amelioration"}, {"measurement": "EAE disease course", "setting": "[1]; therapeutic, 10 mg/kg daily intraperitoneal from disease onset (day 11)", "result": "EAE amelioration"}, {"measurement": "cell death in non-stimulated PBMCs", "setting": "non-stimulated PBMCs", "result": "induction of non-apoptotic cell death"}, {"measurement": "edelfosine concentration giving efficient reduction of proliferation", "setting": "human PBMCs [2]; PHA-activated cells, edelfosine added two days later", "result": "≥ 3.3", "unit": "µg/mL"}, {"measurement": "edelfosine concentration giving significant reduction of proliferation", "setting": "human PBMCs [2]; unstimulated controls", "result": 33.3, "unit": "µg/mL"}, {"measurement": "expression of cell cycle-associated genes", "setting": "human CD4+ T cells [3]; [10]", "result": "downmodulation; also recorded: down-regulated"}, {"measurement": "expression of genes associated with apoptosis and cell death", "setting": "human CD4+ T cells [3]; [10]", "result": "upregulation"}, {"measurement": "expression of immune and virus response-associated, type I interferon-related genes", "setting": "human CD4+ T cells [3]; [10]", "result": "consistent and profound upregulation; also recorded: upregulated"}, {"measurement": "number of downregulated genes assigned to antigen processing and presentation (SLR≦−0.8)", "setting": "human CD4+ T cells [3]; unstimulated cells, 10 μg/ml", "result": 25}, {"measurement": "expression of immune response and antigen processing and presentation (MHC class II) genes", "setting": "human CD4+ T cells [3]; [11]", "result": "downmodulation; also recorded: downregulated"}, {"measurement": "number of upregulated genes (SLR≧0.8)", "setting": "human CD4+ T cells [3]; [11]", "result": 11}, {"measurement": "absolute number of CNS-infiltrating CD45+ leukocytes", "setting": "[4]; 10 mg/kg", "result": "reduced"}, {"measurement": "frequencies of CD8+ T cells", "setting": "[4]; 10 mg/kg", "result": "not affected"}, {"measurement": "infiltrating CD4+ T cells", "setting": "[4]; 10 mg/kg", "result": "relative decrease"}, {"measurement": "activation of caspase 3 in CNS CD4+ T cells", "setting": "[4]; significant for 10 mg/kg versus PBS", "result": "dose-dependent activation; also recorded: increased"}, {"measurement": "IC50", "setting": "[5]; Homo sapiens, PBMC, 72 h, read-out: half maximal inhibitory concentration (IC50) of proliferation, PHA-stimulated cells, edelfosine added at seeding, three days of culture", "result": "0.64 ± 0.1", "unit": "µg/mL"}, {"measurement": "fold lower concentration at which PHA-activated cells are susceptible compared to cells without PHA", "setting": "[5]; PHA-activated versus unstimulated PBMCs", "result": 10, "unit": "fold"}, {"measurement": "edelfosine concentration at which a reduction in proliferation was detectable", "setting": "[5]; unstimulated controls, added at seeding, three days", "result": "≥ 10", "unit": "µg/mL"}, {"measurement": "effect on proliferation without stimulus", "setting": "human PBMCs [6]", "result": "reduced to non-detectable levels; also recorded: inhibited cellular proliferation"}, {"measurement": "proliferative function of lymph node cells on ex vivo restimulation", "setting": "[7]; 9 days after immunization, edelfosine-treated mice", "result": "retained their proliferative function"}, {"measurement": "proliferation on re-activation with PLP peptide", "setting": "[7]; 9 days after immunization, ex vivo PLP restimulation", "result": "edelfosine dose-dependent proliferation"}, {"measurement": "SI compared to PBS treatment of mice", "setting": "[7]; antigen-induced proliferation, edelfosine-treated mice", "result": "increased SI"}, {"measurement": "expression of apoptosis- and cell death-associated genes", "setting": "human CD4+ T cells [8]", "result": "upregulation"}, {"measurement": "edelfosine concentration up to which cells retain proliferative function", "setting": "human PBMCs [9]; 24 h preincubation, washed, PHA stimulation, three days", "result": "up to 1 μg/ml"}, {"measurement": "effect on proliferation", "setting": "human PBMCs [9]; preconditioned but unstimulated cells", "result": "no significant reductions of proliferation; also recorded: No effect"}]}]}
